Measurements as given in the supplement of paper PMC10307832.

Legend:
Experiment in all cases: relative viability (nuclei count vs DMSO), 5 days (fraction); higher = more cells survive
Pemetrexed + Lapatinib = compound: Nc1nc2[nH]cc(CCc3ccc(C(=O)N[C@@H](CCC(=O)O)C(=O)O)cc3)c2c(=O)[nH]1 [Pemetrexed] + CS(=O)(=O)CCNCc1ccc(-c2ccc3ncnc(Nc4ccc(OCc5cccc(F)c5)c(Cl)c4)c3c2)o1 [Lapatinib] (partner 2 µM)
Method in brief: (§1)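 Lung cancer cell lines were pin-tool dosed in 1536-well plates on the day after seeding, with either a lone drug or a fixed anchor-drug dose plus five library-drug doses (not always all listed) in √10 steps. Nuclei were counted on 4× images after 5 days. Relative viability is the ratio of treated-well to vehicle-well nuclei counts, with each value a median of duplicate plates.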

Pemetrexed + Decitabine = compound: Nc1nc2[nH]cc(CCc3ccc(C(=O)N[C@@H](CCC(=O)O)C(=O)O)cc3)c2c(=O)[nH]1 [Pemetrexed] + Nc1ncn([C@H]2C[C@H](O)[C@@H](CO)O2)c(=O)n1 [Decitabine] (partner 2 µM)
Method in brief: as §1

Idelalisib + Pictilisib = compound: CC[C@H](Nc1ncnc2[nH]cnc12)c1nc2cccc(F)c2c(=O)n1-c1ccccc1 [Idelalisib] + CS(=O)(=O)N1CCN(Cc2cc3nc(-c4cccc5[nH]ncc45)nc(N4CCOCC4)c3s2)CC1 [Pictilisib] (partner 1 µM)
Method in brief: as §1

Idelalisib + OSI-027 = compound: CC[C@H](Nc1ncnc2[nH]cnc12)c1nc2cccc(F)c2c(=O)n1-c1ccccc1 [Idelalisib] + COc1cccc2cc(-c3nc([C@H]4CC[C@H](C(=O)O)CC4)n4ncnc(N)c34)[nH]c12 [OSI-027] (partner 0.5 µM)
Method in brief: as §1

| Cell Line | relative viability (Pemetrexed + Lapatinib; first compound 0.002 µM) | relative viability (Pemetrexed + Lapatinib; first compound 0.006325 µM) | relative viability (Pemetrexed + Lapatinib; first compound 0.02 µM) | relative viability (Pemetrexed + Lapatinib; first compound 0.06325 µM) | relative viability (Pemetrexed + Lapatinib; first compound 0.2 µM) | relative viability (Pemetrexed + Decitabine; first compound 0.002 µM) | relative viability (Pemetrexed + Decitabine; first compound 0.006325 µM) | relative viability (Pemetrexed + Decitabine; first compound 0.02 µM) | relative viability (Pemetrexed + Decitabine; first compound 0.06325 µM) | relative viability (Pemetrexed + Decitabine; first compound 0.2 µM) | relative viability (Idelalisib + Pictilisib; first compound 0.04 µM) | relative viability (Idelalisib + Pictilisib; first compound 0.1265 µM) | relative viability (Idelalisib + Pictilisib; first compound 0.4 µM) | relative viability (Idelalisib + Pictilisib; first compound 1.265 µM) | relative viability (Idelalisib + Pictilisib; first compound 4 µM) | relative viability (Idelalisib + OSI-027; first compound 0.04 µM) | relative viability (Idelalisib + OSI-027; first compound 0.1265 µM) | relative viability (Idelalisib + OSI-027; first compound 0.4 µM) | relative viability (Idelalisib + OSI-027; first compound 1.265 µM) | relative viability (Idelalisib + OSI-027; first compound 4 µM) |
| --- | --- | --- | --- | --- | --- | --- | --- | --- | --- | --- | --- | --- | --- | --- | --- | --- | --- | --- | --- | --- |
| NCI-H1666 | 0.678 | 0.647 | 0.566 | 0.575 | 0.394 | 0.637 | 0.724 | 0.712 | 0.594 | 0.612 | 0.541 | 0.48 | 0.469 | 0.361 | 0.333 | 0.889 | 0.895 | 0.782 | 0.83 | 0.759 |
| EKVX | 0.17 | 0.191 | 0.194 | 0.185 | 0.182 | 0.405 | 0.257 | 0.368 | 0.316 | 0.325 | 0.498 | 0.456 | 0.384 | 0.356 | 0.447 | 0.705 | 0.709 | 0.527 | 0.557 | 0.586 |
| COR-L 105 | 0.404 | 0.389 | 0.375 | 0.406 | 0.315 | 0.672 | 0.692 | 0.699 | 0.633 | 0.685 | 0.555 | 0.418 | 0.399 | 0.463 | 0.31 | 0.739 | 0.629 | 0.505 | 0.725 | 0.579 |
| NCI-H322M | 0.642 | 0.531 | 0.657 | 0.551 | 0.618 | 0.722 | 0.642 | 0.655 | 0.794 | 0.612 | 0.546 | 0.584 | 0.444 | 0.508 | 0.549 | 0.612 | 0.546 | 0.463 | 0.539 | 0.511 |
| HARA | 0.681 | 0.747 | 1.01 | 0.674 | 0.365 | 0.486 | 0.457 | 0.659 | 0.437 | 0.234 | 0.376 | 0.409 | 0.287 | 0.403 | 0.266 | 0.618 | 0.466 | 0.296 | 0.374 | 0.441 |
| NCI-H2023 | 0.292 | 0.726 | 1.01 | 0.66 | 0.202 | 0.181 | 0.206 | 0.246 | 0.173 | 0.125 | 0.221 | 0.279 | 0.153 | 0.241 | 0.266 | 0.473 | 0.339 | 0.285 | 0.278 | 0.313 |
| NCI-H1437 | 0.364 | 0.777 | 0.799 | 0.463 | 0.232 | 0.528 | 0.577 | 0.555 | 0.443 | 0.359 | 0.491 | 0.526 | 0.429 | 0.437 | 0.525 | 0.861 | 0.864 | 0.795 | 1.07 | 0.967 |
| BEN | 0.811 | 0.594 | 0.817 | 0.663 | 0.624 | 0.657 | 0.767 | 0.813 | 0.668 | 0.719 | 0.559 | 0.517 | 0.531 | 0.609 | 0.523 | 0.263 | 0.286 | 0.257 | 0.294 | 0.291 |
